{"source": "paper PMC8698657", "about": "“Absorption and Transport Characteristics and Mechanisms of Carnosic Acid” (Biology, 2021)", "key": {"[1]": {"test": "Tissue distribution of CA in mice by HPLC after oral gavage", "type": "in vivo", "conditions": "50 mg/kg/daily oral gavage 7 days, 4 h after last gavage", "description": "The animal experiment protocol was approved by the Institutional Animal Care and Use Committee of Guangzhou Medical University (#GY2020-067, 30 July 2020). Male ICR mice aged 5–6 weeks were kept in a specific-pathogen-free environment with 12-h light/dark cycles. […] Both groups were allowed to eat and drink ad libitum. Four hours after the last gavage, the mice were anesthetized, and their eyeballs were removed for blood collection. They were sacrificed and immediately dissected in the supine position. Serum, major organs (heart, liver, lung, stomach, spleen, kidney, small intestine, cecum, and colon), and the contents of the stomach, small intestine, cecum, and colon were collected, weighed, and stored at −80 °C.\nTissue samples and the contents of the digestive tract were homogenized in ultrapure water at 55 Hz for 8 min. Tissue/content homogenate (1 mL) or serum (100 μL) was mixed with 1 mL of 50% methanol, and the mixture was vortexed for 2 min. The mixture was extracted with ethyl acetate three times (6, 3, and 3 mL of ethyl acetate) and vortexed again for 2 min. The sample was centrifuged at 5000 rpm/min at 4 °C for 15 min, and the upper organic phase was dried under vacuum. Then, it was dissolved in 5% phosphoric acid methanol solution and filtered through a 0.22 μm microporous membrane. Concentrations of CA in serum, tissue, and content samples were determined using HPLC. CA standard was added to all samples, and the recovery rate was calculated. The chromatographic conditions for HPLC analysis were as follows: C18 chromatographic column: 5 μm, 150 × 4.6 mm; column temperature: 25 °C; mobile phase: methanol/0.1% phosphoric acid solution at 85%/15%; flow rate: 1.0 mL/min; detection wavelength: 230 nm; injection volume: 10 μL."}, "[2]": {"test": "Effect of verapamil, PEG 400 and EDTA on trans-enterocyte transport of CA", "type": "in vitro ADME, human", "conditions": "human, read-out: Papp AP to BL; for Papp A→B at 0.5 h, 50 μM / Papp A→B at 1 h, 50 μM / Papp A→B at 1.5 h, 50 μM / Papp A→B at 2 h, 50 μM / Papp A→B at 2.5 h, 50 μM / Papp A→B at 3 h, 50 μM / Papp A→B at 50 μM: Caco-2, CA 50 μM; for Papp A→B at 50 μM / Papp A→B at 75 μM: Average of 0.5-3.0 h; for Papp A→B at 0.5 h, 75 μM / Papp A→B at 1 h, 75 μM / Papp A→B at 1.5 h, 75 μM / Papp A→B at 2 h, 75 μM / Papp A→B at 2.5 h, 75 μM / Papp A→B at 3 h, 75 μM / Papp A→B at 75 μM: Caco-2, CA 75 μM; for Papp A→B at 0.5 h, 100 μM: Caco-2, CA 100 μM", "protocol": "CA was dissolved in HBSS solution at 50, 75, and 100 μM. The HBSS solution containing CA combined with 0.5% Tween 80, 5 mmol/L EDTA or 5% PEG 400 was prepared. The cumulative migration (Qr), apparent permeability coefficient (Papp), and the Papp value of bi-direction transport of CA were calculated according to formulas.\nThe 0.5 mL HBSS solution containing CA (50, 75, and 100 μM) combined with 100 μmoL/L verapamil, 5% PEG 400, or 5 mmol/L EDTA was added to the AP side of the Transwell plate, and 1.5 mL HBSS solution was added to the BL side. The effect of verapamil, Tween 80, PEG 400, and EDTA on the trans-enterocyte of CA was investigated according to the method described above. The TEER value of each Transwell chamber was measured.\nThe cryopreserved Transwell samples were transferred to a 15 mL centrifuge tube, and any remaining liquid was fully washed using 1 mL of 50% methanol solution which was also transferred to the 15 mL centrifuge tube. The mixture was vortexed for 1 min, and 6 mL of ethyl acetate solution was added to the tube and vortexed for another 2 min. The mixture was centrifuged at 6000 rpm/min at 4 °C for 10 min. The supernatant was dried under vacuum, dissolved in 5% phosphoric acid methanol solution, and filtered through a 0.22 μm microporous membrane. The concentration of CA was determined by HPLC as described above."}}, "note": "“And” between values parts separate entries of the source, which are not always exact repeats. Equal entries are not always repeated. Where two headings read alike, the source gives them in different places.", "data": [{"smiles": "CC(C)c1cc2c(c(O)c1O)[C@@]1(C(=O)O)CCCC(C)(C)[C@@H]1CC2", "note": "[CA, Carnosic acid]", "values": [{"measurement": "Concentration of CA in Cecal content", "setting": "[1]", "result": "0.15 nmol/g or mL and 0.15 ± 0.00 nmol/g or mL"}, {"measurement": "Concentration of CA in Cecum", "setting": "[1]", "result": "2965.1 nmol/g or mL and 2965.10 ± 3.31 nmol/g or mL"}, {"measurement": "Concentration of CA in Colon", "setting": "[1]", "result": "179.4 nmol/g or mL and 179.43 ± 0.26 nmol/g or mL"}, {"measurement": "Concentration of CA in Colonic content", "setting": "[1]", "result": "74.54 nmol/g or mL and 74.54 ± 0.21 nmol/g or mL"}, {"measurement": "Concentration of CA in Gastric content", "setting": "[1]", "result": "1.08 nmol/g or mL and 1.08 ± 0.00 nmol/g or mL"}, {"measurement": "Concentration of CA in Heart", "setting": "[1]", "result": "0.75 ± 0.00 nmol/g or mL"}, {"measurement": "Concentration of CA in Kidney", "setting": "[1]", "result": "0.66 ± 0.02 nmol/g or mL"}, {"measurement": "Concentration of CA in Liver", "setting": "[1]", "result": "10.56 ± 0.01 nmol/g or mL"}, {"measurement": "Concentration of CA in Lung", "setting": "[1]", "result": "1.68 ± 0.00 nmol/g or mL"}, {"measurement": "Concentration of CA in Serum", "setting": "[1]", "result": "15.22 ± 0.02 nmol/g or mL"}, {"measurement": "Concentration of CA in Small intestine", "setting": "[1]", "result": "1.87 nmol/g or mL and 1.87 ± 0.00 nmol/g or mL"}, {"measurement": "Concentration of CA in Small intestine content", "setting": "[1]", "result": "13.93 nmol/g or mL and 13.93 ± 0.01 nmol/g or mL"}, {"measurement": "Concentration of CA in Spleen", "setting": "[1]", "result": "13.42 ± 0.01 nmol/g or mL"}, {"measurement": "Concentration of CA in Stomach", "setting": "[1]", "result": "35.98 ± 0.09 nmol/g or mL"}, {"measurement": "concentration at 4 h", "setting": "[1]; male, ICR, mouse, serum, read-out: CA detected in serum", "result": 15.2, "unit": "µM"}, {"measurement": "Papp A→B at 0.5 h, 50 μM", "setting": "[2]; + 5% PEG 400", "result": "3.76 ± 0.17", "unit": "×10⁻⁶ cm/s"}, {"measurement": "Papp A→B at 0.5 h, 50 μM", "setting": "[2]; + 5 mmoL/L EDTA", "result": "0.5 ± 0.01", "unit": "×10⁻⁶ cm/s"}, {"measurement": "Papp A→B at 1 h, 50 μM", "setting": "[2]; + 5% PEG 400", "result": "3.96 ± 0.1", "unit": "×10⁻⁶ cm/s"}, {"measurement": "Papp A→B at 1 h, 50 μM", "setting": "[2]; + 5 mmoL/L EDTA", "result": "0.24 ± 0.08", "unit": "×10⁻⁶ cm/s"}, {"measurement": "Papp A→B at 1.5 h, 50 μM", "setting": "[2]; + 5% PEG 400", "result": "2.35 ± 0.01", "unit": "×10⁻⁶ cm/s"}, {"measurement": "Papp A→B at 1.5 h, 50 μM", "setting": "[2]; + 5 mmoL/L EDTA", "result": "0.62 ± 0.02", "unit": "×10⁻⁶ cm/s"}, {"measurement": "Papp A→B at 2 h, 50 μM", "setting": "[2]; + 5% PEG 400", "result": "1.86 ± 0.35", "unit": "×10⁻⁶ cm/s"}, {"measurement": "Papp A→B at 2 h, 50 μM", "setting": "[2]; + 5 mmoL/L EDTA", "result": 0.92, "unit": "×10⁻⁶ cm/s"}, {"measurement": "Papp A→B at 2.5 h, 50 μM", "setting": "[2]; + 5% PEG 400", "result": "1.89 ± 0.04", "unit": "×10⁻⁶ cm/s"}, {"measurement": "Papp A→B at 2.5 h, 50 μM", "setting": "[2]; + 5 mmoL/L EDTA", "result": "0.95 ± 0.02", "unit": "×10⁻⁶ cm/s"}, {"measurement": "Papp A→B at 3 h, 50 μM", "setting": "[2]; + 5% PEG 400", "result": "2.34 ± 0.01", "unit": "×10⁻⁶ cm/s"}, {"measurement": "Papp A→B at 3 h, 50 μM", "setting": "[2]; + 5 mmoL/L EDTA", "result": "1.49 ± 0.02", "unit": "×10⁻⁶ cm/s"}, {"measurement": "Papp A→B at 50 μM", "setting": "[2]; + 5% PEG 400", "result": "2.69 ± 0.04", "unit": "×10⁻⁶ cm/s"}, {"measurement": "Papp A→B at 50 μM", "setting": "[2]; + 5 mmoL/L EDTA", "result": "0.79 ± 0.03", "unit": "×10⁻⁶ cm/s"}, {"measurement": "Papp A→B at 0.5 h, 75 μM", "setting": "[2]; + 5% PEG 400", "result": "3.9 ± 0.1", "unit": "×10⁻⁶ cm/s"}, {"measurement": "Papp A→B at 0.5 h, 75 μM", "setting": "[2]; + 5 mmoL/L EDTA", "result": "0.92 ± 0.08", "unit": "×10⁻⁶ cm/s"}, {"measurement": "Papp A→B at 1 h, 75 μM", "setting": "[2]; + 5% PEG 400", "result": "2.99 ± 0.09", "unit": "×10⁻⁶ cm/s"}, {"measurement": "Papp A→B at 1 h, 75 μM", "setting": "[2]; + 5 mmoL/L EDTA", "result": "1.9 ± 0.08", "unit": "×10⁻⁶ cm/s"}, {"measurement": "Papp A→B at 1.5 h, 75 μM", "setting": "[2]; + 5% PEG 400", "result": "2.72 ± 0.46", "unit": "×10⁻⁶ cm/s"}, {"measurement": "Papp A→B at 1.5 h, 75 μM", "setting": "[2]; + 5 mmoL/L EDTA", "result": "1.94 ± 0.07", "unit": "×10⁻⁶ cm/s"}, {"measurement": "Papp A→B at 2 h, 75 μM", "setting": "[2]; + 5% PEG 400", "result": "2.35 ± 0.1", "unit": "×10⁻⁶ cm/s"}, {"measurement": "Papp A→B at 2 h, 75 μM", "setting": "[2]; + 5 mmoL/L EDTA", "result": "2.08 ± 0.03", "unit": "×10⁻⁶ cm/s"}, {"measurement": "Papp A→B at 2.5 h, 75 μM", "setting": "[2]; + 5% PEG 400", "result": "1.52 ± 0.06", "unit": "×10⁻⁶ cm/s"}, {"measurement": "Papp A→B at 2.5 h, 75 μM", "setting": "[2]; + 5 mmoL/L EDTA", "result": "1.28 ± 0.1", "unit": "×10⁻⁶ cm/s"}, {"measurement": "Papp A→B at 3 h, 75 μM", "setting": "[2]; + 5% PEG 400", "result": "1.19 ± 0.06", "unit": "×10⁻⁶ cm/s"}, {"measurement": "Papp A→B at 3 h, 75 μM", "setting": "[2]; + 5 mmoL/L EDTA", "result": "0.57 ± 0.01", "unit": "×10⁻⁶ cm/s"}, {"measurement": "Papp A→B at 75 μM", "setting": "[2]; + 5% PEG 400", "result": "1.45 ± 0.08", "unit": "×10⁻⁶ cm/s"}, {"measurement": "Papp A→B at 75 μM", "setting": "[2]; + 5 mmoL/L EDTA", "result": "1.45 ± 0.05", "unit": "×10⁻⁶ cm/s"}, {"measurement": "Papp A→B at 0.5 h, 100 μM", "setting": "[2]; + 5% PEG 400", "result": "3.21 ± 0.47", "unit": "×10⁻⁶ cm/s"}, {"measurement": "Papp A→B at 0.5 h, 100 μM", "setting": "[2]; + 5 mmoL/L EDTA", "result": 0.38, "unit": "×10⁻⁶ cm/s"}]}]}
